Source: patent publication US12667608B2 (priority 2020, dated 2026)
≈ marks a conversion by molar mass, not a printed value.

What was measured:
Assay in all cases: microbe, parasite or virus in culture
Assay type in all cases: cell-based
[1] = system: Recombinant drug-resistant BCG Strain; conditions: Mycobacterium tuberculosis variant bovis BCG, 672 h
M. bovis BCG = conditions: Mycobacterium tuberculosis variant bovis BCG, 672 h
Mtb H37Rv = conditions: Mycobacterium tuberculosis, 672 h

Compound | MIC [1] [mg/L] | MIC (M. bovis BCG) [mg/L] | MIC (Mtb H37Rv) [mg/L]
NCC[C@H](O)C(=O)N[C@@H]1C[C@H](N)[C@@H](O[C@H]2O[C@H](CN)[C@@H](O)[C@H](O)[C@H]2O)[C@H](O)[C@H]1O[C@H]1O[C@H](CO)[C@@H](O)[C@H](N)[C@H]1O [AMK, amikacin] | 5 (≈ 8.54 µM) | 0.5 (≈ 0.854 µM) | 0.5 to 1 (≈ 0.854 to 1.71 µM)
CC(C)/N=c1\cc2n(-c3ccc(Cl)cc3)c3ccccc3nc-2cc1Nc1ccc(Cl)cc1 [CLA, clofazimine] | 0.5 (≈ 1.06 µM) | 0.25 (≈ 0.528 µM) | 8 (≈ 16.9 µM)
CC[C@@H](CO)NCCN[C@@H](CC)CO [EMB, ethambutol] | 5 (≈ 24.5 µM) | 0.5 (≈ 2.45 µM) | 0.5 (≈ 2.45 µM)
NNC(=O)c1ccncc1 [INH, isoniazid] | 0.06 (≈ 0.438 µM) | 0.1 (≈ 0.729 µM) | 0.03 to 0.06 (≈ 0.219 to 0.438 µM)
C[C@H]1COc2c(N3CCN(C)CC3)c(F)cc3c(=O)c(C(=O)O)cn1c23 [LFX, levofloxacin] | 4 (≈ 11.1 µM) | 0.5 (≈ 1.38 µM) | 0.5 (≈ 1.38 µM)
CC(=O)NC[C@H]1CN(c2ccc(N3CCOCC3)c(F)c2)C(=O)O1 [LZD, linezolid] | 0.03 (≈ 0.0889 µM) | 0.125 to 0.5 (≈ 0.371 to 1.48 µM) | 0.25 (≈ 0.741 µM)
COc1c(N2C[C@@H]3CCCN[C@@H]3C2)c(F)cc2c(=O)c(C(=O)O)cn(C3CC3)c12 [MFX, moxifloxacin] | 4 (≈ 9.96 µM) | 0.5 (≈ 1.25 µM) | 0.25 to 0.5 (≈ 0.623 to 1.25 µM)
O=[N+]([O-])c1cn2c(n1)OC[C@@H](OCc1ccc(OC(F)(F)F)cc1)C2 [PA-824, Pretomanid] | 0.25 (≈ 0.696 µM) | 0.25 (≈ 0.696 µM) | 0.06 to 0.125 (≈ 0.167 to 0.348 µM)
Nc1ccc(C(=O)O)c(O)c1 [PAS, para-aminosalicylic acid] | 0.25 (≈ 1.63 µM) | 0.25 (≈ 1.63 µM) | 0.3 to 1 (≈ 1.96 to 6.53 µM)
CCCc1cc(C(N)=S)ccn1 [PRO, prothionamide] | 64 (≈ 355 µM) | 0.25 (≈ 1.39 µM) | 0.5 (≈ 2.77 µM)
CO[C@H]1/C=C/O[C@@]2(C)Oc3c(C)c(O)c4c(O)c(c(/C=N/N5CCN(C)CC5)c(O)c4c3C2=O)NC(=O)/C(C)=C\C=C\[C@H](C)[C@H](O)[C@@H](C)[C@@H](O)[C@@H](C)[C@H](OC(C)=O)[C@@H]1C [RIF, rifampicin] | 0.5 (≈ 0.608 µM) | 0.032 (≈ 0.0389 µM) | 0.25 (≈ 0.304 µM)
[H]/N=C(/N)N[C@H]1[C@H](O)[C@@H](O)[C@H](O[C@@H]2O[C@@H](C)[C@](O)(C=O)[C@H]2O[C@@H]2O[C@@H](CO)[C@H](O)[C@@H](O)[C@@H]2NC)[C@@H](N/C(N)=N\[H])[C@@H]1O [STR, streptomycin] | 64 (≈ 110 µM) | 0.25 (≈ 0.43 µM) | 1 (≈ 1.72 µM)
COc1nc2ccc(Br)cc2cc1[C@@H](c1ccccc1)[C@@](O)(CCN(C)C)c1cccc2ccccc12 [TMC 207, bedaquiline] | 0.03 (≈ 0.054 µM) | 0.03 (≈ 0.054 µM) | 0.03 to 0.12 (≈ 0.054 to 0.216 µM)
